In patent publication US9999616B2 (ZENITH EPIGENETICS LTD., priority 2013, dated 2018):

Target: Brd4 bromodomain 1 (BRD4(1)) (Homo sapiens, UniProt O60885)
Assay: Inhibition of tetra-acetylated histone H4 binding to Brd4 bromodomain 1, measured by FRET (HTRF)
Set-up: made in house; host or cells: E. coli BL21(DE3)
Details: 2 h at room temperature
Procedure: Proteins were cloned and overexpressed with a N-terminal 6×His tag, then purified by nickel affinity followed by size exclusion chromatography. Briefly, E. coli BL21(DE3) cells were transformed with a recombinant expression vector encoding N-terminally Nickel affinity tagged bromodomains from Brd2, Brd3, Brd4. Cell cultures were incubated at 37° C. with shaking to the appropriate density and induced overnight with IPTG. The supernatant of lysed cells was loaded onto Ni-IDA column for purification. Eluted protein was pooled, concentrated and further purified by size exclusion chromatography. Fractions representing monomeric protein were pooled, concentrated, aliquoted, and frozen at −80° C. for use in subsequent experiments.
Binding of tetra-acetylated histone H4 and BET bromodomains was confirmed by a Homogenous Time Resolved Fluorescence Resonance Energy Transfer (HTRF®) method. N-terminally His-tagged bromodomains (200 nM) and biotinylated tetra-acetylated histone H4 peptide (25-50 nM, Millipore) were incubated in the presence of Europium Cryptate-labeled streptavidin (Cisbio Cat. #610SAKLB) and XL665-labeled monoclonal anti-His antibody (Cisbio Cat. #61HISXLB) in a white 96 well microtiter plate (Greiner). For inhibition assays, serially diluted test compound was added to these reactions in a 0.2% final concentration of DMSO. Duplicate wells were used for each concentration tested. Final buffer concentrations were 30 mM HEPES pH 7.4, 30 mM NaCl, 0.3 mM CHAPS, 20 mM phosphate pH 7.0, 320 mM KF, 0.08% BSA. After a 2 h incubation at room temperature, fluorescence was measured at 665 and 620 nm with a SynergyH4 plate reader (Biotek). The binding inhibitory activity was shown by a decrease in 665 nm relative to 620 nm fluorescence. IC50 values were determined from a dose response curve.

Row | SMILES | IC50
1 | Cc1nc2c(-c3cn(C)nc3C)cc(-c3cn(C)nc3C)cc2[nH]1 [Example Compound 133, 4,6-bis(1,3-dimethyl-1H-pyrazol-4-yl)-2-methyl-1H-benzo[d] imidazole] | 3 to 30 µM
2 | Cc1noc(C)c1-c1cc(-c2c(C)nn(C)c2C)cc2[nH]cnc12 [Example Compound 14, 3,5-dimethyl-4-(6-(1,3,5-trimethyl-1H-pyrazol-4-yl)-1H-benzo[d]imidazol-4-yl)isoxazole] | 3 to 30 µM
3 | Cc1noc(C)c1-c1cn2ccnc2c(-c2c(C)noc2C)n1 [Example Compound 10, 4,4′-(imidazo [1,2-a]pyrazine-6,8-diyl)bis(3,5-dimethylisoxazole)] | 3 to 30 µM
4 | Cc1nc2c(Nc3ncccc3C)cc(-c3c(C)noc3C)cc2[nH]1 [Example Compound 63, 6-(3,5-dimethyl-isoxazol-4-yl)-2-methyl-N-(3-methylpyridin-2-yl)-1H-benzo[d] imidazol-4-amine] | 0.3 to 3 µM
5 | Cc1nc2c(N3CCCCC3=O)cc(-c3c(C)noc3C)cc2[nH]1 [Example Compound 122, 1-(6-(3,5-dimethylisoxazol-4-yl)-2-methyl-1H-benzo[d]imidazol-4-yl)piperidin-2-one] | 0.3 to 3 µM
6 | Cc1nc2c(-c3sc(C)nc3C)cc(-c3sc(C)nc3C)cc2[nH]1 [Example Compound 168, 5,5′-(2-methyl-1H-benzo[d]imidazole-4,6-diyl) bis(2,4-dimethylthiazole)] | 3 to 30 µM
7 | Cc1nc2c(-c3c(C)cnn3C)cc(-c3c(C)cnn3C)cc2[nH]1 [Example Compound 167, 4,6-bis(1,4-dimethyl-1H-pyrazol-5-yl)-2-methyl-1H-benzo[d] imidazole] | 0.3 to 3 µM
8 | Cc1noc(C)c1-c1cc(-c2c(C)noc2C)c2ncnn2c1 [Example Compound 17, 4,4′-([1,2,4]triazolo [1,5-a]pyridine-6,8-diyl)bis (3,5-dimethyl-isoxazole)] | 3 to 30 µM
9 | Cc1nc2c(-c3ccccc3C#N)cc(-c3c(C)noc3C)cc2[nH]1 [Example Compound 71, 2-(6-(3,5-dimethyl-isoxazol-4-yl)-2-methyl-1H-benzo[d]imidazol-4-yl)benzonitrile] | 3 to 30 µM
10 | Cc1noc(C)c1-c1cc(Nc2cnccn2)c2nc[nH]c2c1 [Example Compound 62, 6-(3,5 dimethyl-isoxazol-4-yl)-N-(pyrazin-2-yl)-1H-benzo[d] imidazol-4-amine] | 0.3 to 3 µM
11 | Cc1noc(C)c1-c1cc(-c2c(C)noc2C)c2nc(N(C)C)[nH]c2c1 [Example Compound 116, 4,6-bis(3,5-dimethyl-isoxazol-4-yl)-N,N-dimethyl-1H-benzo[d] imidazol-2-amine] | 0.3 to 3 µM
12 | Cc1nc2c(-c3cc(C(=O)O)ccc3C)cc(-c3c(C)noc3C)cc2[nH]1 [Example Compound 75, 3-(6-(3,5-dimethyl-isoxazol-4-yl)-2-methyl-1H-benzo[d]imidazol-4-yl)-4-methyl benzoic acid] | 0.3 to 3 µM
13 | Cc1nc2c(-c3c(C)noc3C)cc(-c3c(C)noc3C)nc2[nH]1 [Example Compound 176, 4,4′-(2-methyl-3H-imidazo[4,5-b]pyridine-5,7-diyl)bis(3,5-dimethylisoxazole)] | 0.3 to 3 µM
14 | Cc1nc2c(-c3ncsc3C)cc(-c3c(C)noc3C)cc2[nH]1 [Example Compound 113, 3,5-dimethyl-4-(2-methyl-4-(5-methyl-thiazol-4-yl)-1H-benzo[d]imidazol-6-yl)isoxazole] | 0.3 to 3 µM
15 | Cc1nc2c(-c3cccc4cccnc34)cc(-c3c(C)noc3C)cc2[nH]1 [Example Compound 111, 3,5-dimethyl-4-(2-methyl-4-(quinolin-8-yl)-1H-benzo[d]imidazol-6-yl)isoxazole] | 0.3 to 3 µM
16 | Cc1ccncc1-c1cc(-c2c(C)noc2C)cc2[nH]c(N3CCN(C)CC3)nc12 [Example Compound 199, 3,5-dimethyl-4-(2-(4-methylpiperazin-1-yl)-4-(4-methylpyridin-3-yl)-1H-benzo[d]imidazol-6-yl)isoxazole] | 0.3 to 3 µM
17 | COc1ccccc1S(=O)(=O)Nc1cc(-c2c(C)noc2C)cc2[nH]cnc12 [Example Compound 102, N-(6-(3,5-dimethylisoxazol-4-yl)-1H-benzo[d]imidazol-4-yl)-2-methoxybenzenesulfonamide] | 0.3 to 3 µM
18 | Cc1nc2c(-c3ccc(Cl)cc3C)cc(-c3c(C)noc3C)cc2[nH]1 [Example Compound 90, 4-(4-(4-chloro-2-methyl-phenyl)-2-methyl-1H-benzo[d]imidazol-6-yl)-3,5-dimethyl isoxazole] | 0.3 to 3 µM
19 | Cc1noc(C)c1-c1cc(-c2c(C)noc2C)c2n[nH]c(=O)n2c1 [Example Compound 149, 6,8-bis(3,5-dimethyl-isoxazol-4-yl)-[1,2,4] triazolo[4,3-a] pyridin-3(2H)-one] | 3 to 30 µM
20 | Cc1noc(C)c1-c1nc(-c2c(C)noc2C)c2ccccc2n1 [Example Compound 3, 4,4′-(quinazoline-2,4-diyl)bis (3,5-dimethyl isoxazole)] | 3 to 30 µM
21 | Cc1nc2c(-c3ccccc3C(F)(F)F)cc(-c3c(C)noc3C)cc2[nH]1 [Example Compound 78, 3,5-dimethyl-4-(2-methyl-4-(2-(trifluoromethyl)phenyl)-1H-benzo[d]imidazol-6-yl)isoxazole] | 0.3 to 3 µM

The remaining lines, values ahead:

Row | IC50 | SMILES
22 | ≤ 0.3 µM | Cc1nc2cc(-c3c(C)noc3C)cc(-c3c(C)noc3C)c2o1 [Example Compound 101, 5,7-bis(3,5-dimethylisoxazol-4-yl)-2-methylbenzo[d]oxazole]
23 | 0.3 to 3 µM | Cc1nc2c(-c3cccnc3N)cc(-c3c(C)noc3C)cc2[nH]1 [Example Compound 82, 3-(6-(3,5-dimethyl-isoxazol-4-yl)-2-methyl-1H-benzo[d]imidazol-4-yl)pyridin-2-amine]
24 | 0.3 to 3 µM | Cc1nc2c(-c3cccc(F)c3C#N)cc(-c3c(C)noc3C)cc2[nH]1 [Example Compound 83, 2-(6-(3,5-dimethyl-isoxazol-4-yl)-2-methyl-1H-benzo[d]imidazol-4-yl)-6-fluoro-benzonitrile]
25 | ≤ 0.3 µM | Cc1ccc(C(=O)N2CCCC2)cc1-c1cc(-c2c(C)noc2C)cc2[nH]c(N3CCCC3)nc12 [Example Compound 218, (3-(6-(3,5-dimethylisoxazol-4-yl)-2-(pyrrolidin-1-yl)-1H-benzo[d]imidazol-4-yl)-4-methylphenyl)(pyrrolidin-1-yl)methanone]
26 | 0.3 to 3 µM | Cc1noc(C)c1-c1cc(-c2c(C)noc2C)c2nccnc2c1 [Example Compound 159, 4,4′-(quinoxaline-5,7-diyl)bis(3,5-dimethylisoxazole)]
27 | ≤ 0.3 µM | Cc1ccc(C(N)=O)cc1-c1cc(-c2c(C)noc2C)cc2[nH]c(NCc3ccccc3)nc12 [Example Compound 220, 3-(2-(benzyl-amino)-6-(3,5-dimethylisoxazol-4-yl)-1H-benzo[d]imidazol-4-yl)-4-methyl-benzamide]
28 | 0.3 to 3 µM | Cc1nc2c(-c3ccnn3C)cc(-c3ccnn3C)cc2[nH]1 [Example Compound 134, 2-methyl-4,6-bis(1-methyl-1H-pyrazol-5-yl)-1H-benzo[d] imidazole]
29 | 0.3 to 3 µM | Cc1ccc(-c2cc(-c3c(C)noc3C)cc3[nH]c(C)nc23)nn1 [Example Compound 86, 3,5-dimethyl-4-(2-methyl-4-(6-methyl-pyridazin-3-yl)-1H-benzo[d]imidazol-6-yl)isoxazole]
30 | 0.3 to 3 µM | Cc1nc2c(-c3cn(C)nc3C(F)(F)F)cc(-c3c(C)noc3C)cc2[nH]1 [Example Compound 115, 3,5-dimethyl-4-(2-methyl-4-(1-methyl-3-(trifluoro-methyl)-1H-pyrazol-4-yl)-1H-benzo[d]imidazol-6-yl)isoxazole]
31 | ≤ 0.3 µM | Cc1noc(C)c1-c1cc(-c2c(C)noc2C)c2nc(NCc3ccccc3)[nH]c2c1 [Example Compound 31, N-benzyl-4,6-bis(3,5-dimethylisoxazol-4-yl)-1H-benzo[d] imidazol-2-amine]
32 | ≤ 0.3 µM | Cc1nc2c(-c3cccc(OC(F)(F)F)c3)cc(-c3c(C)noc3C)cc2[nH]1 [Example Compound 96, 3,5-dimethyl-4-(2-methyl-4-(3-(trifluoro-methoxy)phenyl)-1H-benzo[d]imidazol-6-yl)isoxazole]
33 | ≤ 0.3 µM | Cc1noc(C)c1-c1cc(-c2c(C)nn(C)c2C)c2nc(NCc3cccnc3)[nH]c2c1 [Example Compound 221, 6-(3,5-dimethyl-isoxazol-4-yl)-N-(pyridin-3-ylmethyl)-4-(1,3,5-trimethyl-1H-pyrazol-4-yl)-1H-benzo[d] imidazol-2-amine]
34 | ≤ 0.3 µM | CSc1nc2cc(-c3c(C)noc3C)cc(-c3c(C)nn(C)c3C)c2n1C [Example Compound 191, 3,5-dimethyl-4-(1-methyl-2-(methylthio)-7-(1,3,5-trimethyl-1H-pyrazol-4-yl)-1H-benzo[d]imidazol-5-yl)isoxazole]
35 | ≤ 0.3 µM | Cc1ccc(C(N)=O)cc1-c1cc(-c2c(C)noc2C)cc2[nH]c(NCc3cccnc3)nc12 [Example Compound 219, 3-(6-(3,5-dimethyl-isoxazol-4-yl)-2-((pyridin-3-ylmethyl)amino)-1H-benzo[d]imidazol-4-yl)-4-methyl-benzamide]
